Measurements taken from patent US20220195487A1, “Method for Measuring Inhibition of Bacteria by Antibacterial Drug, and Bacterial Counting Device and Method Thereof” (BEIJING XINJI JINNUO MEDICAL EQUIPMENT CO.,LTD., priority 2019, published 2022).
Values after ≈ are worked out from the molar mass of the structure shown.

Key:
Format in all cases: cell-based
[1] = test system: Pseudomonas aeruginosa (ATCC27853); experiment: 24 h routine (conventional) drug susceptibility testing by visual observation
[2] = test system: Pseudomonas aeruginosa (ATCC27853); experiment: rapid drug susceptibility testing of living cells (live bacteria counting, 2 h); settings: for Living cell counts: 2 h
Protocol: (§1) 1.2.1 Preparation of bacterial strains: in accordance with the requirements of the CLSI standards, pick each fresh strains within 24 h with a turbidity of 0.5 McFarland units in the column of strain name in Table 7.
(§2) 1.2.2 Inoculation: take 100 μL of each bacterial suspension with a turbidity of 0.5 McFarland units and dispense to a 48-well plate with pre-configured gradient antibiotics, 500 μL dispensed in each well.
(§3) 1.2.3 Incubation and detection: incubate for 2 h at 37° C., and perform live bacteria counting. Record the 24 h routine susceptibility results for comparative analysis.

[3] = test system: Pseudomonas aeruginosa (ATCC27853); experiment: 2 h susceptibility by resistance bacterial counter; settings: Example 3, resistance counting, 2 h at 37° C., 60% of the positive count value as threshold
Protocol: (§4) 2.2.1 Preparation of bacterial strains: In accordance with the requirements of the CLSI standards, pick each fresh strains within 24 h with a turbidity of 0.5 McFarland units in the column of strain name in Table 5;
(§5) 2.2.2 Inoculation: Take 100 μL of each bacterial suspension with a turbidity of 0.5 McFarland units and dispense to a 48-well plate with pre-configured gradient antibiotics, 500 μL dispensed in each well;
(§6) 2.2.3 Incubation and detection: Incubate for 2 h at 37° C., and measure with a resistance bacterial counter. Adjust the instrument to its best sensitivity and then count bacteria. Record the 24 h routine susceptibility results for comparative analysis.

Acinetobacter baumannii [4] = experiment: 24 h routine (conventional) drug susceptibility testing by visual observation
Acinetobacter baumannii [5] = experiment: rapid drug susceptibility testing of living cells (live bacteria counting, 2 h); settings: for Living cell counts: 2 h
Protocol: as §1, §2, §3

Acinetobacter baumannii [6] = experiment: 2 h susceptibility by resistance bacterial counter; settings: Example 3, resistance counting, 2 h at 37° C., 60% of the positive count value as threshold
Protocol: as §4, §5, §6

[7] = test system: Escherichia coli ATCC 25922; experiment: rapid susceptibility test by resistance counting method (Coulter principle)
Protocol: A method for measuring inhibition of Escherichia coli ATCC 25922 by ampicillin (by the resistance counting method).
The standard strain ATCC 25922 Escherichia coli was transferred for use later and incubated at 37° C. for 18 hours.
Ten of the drug susceptibility testing tubes (or cups) contained the required antibiotics of concentrations via doubling dilution (refer to American CLSI standards for concentrations for different drugs); the eleventh tube without antibiotics is used as a positive control (PC); the twelfth tube without bacterial suspension is used as a negative control (NC).
Prepare the bacterial strain and triturate on the wall of a vial with Mueller Hinton broth (MH for antibiotics susceptibility testing) to mix evenly, close the cap and measure the turbidity with a nephelometer (BD PhoenixSpec Nephelometer), the turbidity being 0.5 McFarland units, and set aside to be used later.
Inoculate the bacteria to be tested at an inoculum concentration specified in the CLSI (American Clinical and Laboratory Standards Institute) method for broth dilution drug susceptibility testing, and incubate in an incubator at 37° C.
Preparation of bacterial suspension: pick a spare colony to prepare bacterial suspension, the concentration of the bacterial suspension being 0.5 McFarland units. Add the colony suspension to (MH) broths containing different concentrations of various antibiotics and the content of bacteria in each tube after inoculation is 1×10∧4 cfu/mL to 5×10∧7 cfu/mL, optimally 5×10∧6 cfu/mL (colony forming units/mL), i.e. optimally 5×10∧6 colony forming units per mL.
Incubate in an incubator at 37° C., perform bacterial counting at 0 min, 10 min, 30 min, 60 min, 90 min and 120 min respectively by the resistance counting method (OMEC (Zhuhai) RC-3000 resistance (Coulter) particle counter). Measure twice, take the average value and record the data.
There were 12 tubes for testing, the eleventh tube being the positive control (PC), the twelfth tube being the negative control (NC) and the other 10 tubes being the test tubes. At each detection time point, measurements were carried out for all 12 tubes.

[8] = test system: Escherichia coli ATCC 25922; experiment: Etest method; settings: ATCC25922, read-out: minimum inhibitory concentration
Protocol: (§7) In addition, the bacteria in this example were also subjected to three other methods of drug susceptibility testing, namely, measuring the inhibition of Escherichia coli ATCC 25922 in this example by ampicillin according to the operating manual of the VITEK microbial identification susceptibility system from Merieux, France, with a minimum inhibitory concentration of 4 μg/mL (micrograms per milliliter); measuring the inhibition of Escherichia coli ATCC 25922 in this example by ampicillin according to the Etest method, as detailed in the operating manual of the Etest kit from Thermo Fisher, USA, with a minimum inhibitory concentration of 2 μg/mL; and measuring the inhibition of Escherichia coli ATCC 25922 in this example by ampicillin according to broth dilution drug susceptibility testing method as specified in the broth dilution susceptibility standards by the American Clinical and Laboratory Standards Institute, with a minimum inhibitory concentration of 4 μg/mL. It can be seen that their results are all consistent and sensitive.

[9] = test system: Escherichia coli ATCC 25922; experiment: broth dilution drug susceptibility testing method (CLSI); settings: ATCC25922, read-out: minimum inhibitory concentration
Protocol: as §7

[10] = test system: Escherichia coli ATCC 25922; experiment: VITEK microbial identification susceptibility system; settings: ATCC25922, read-out: minimum inhibitory concentration
Protocol: as §7

Klebsiella pneumoniae [11] = experiment: rapid drug susceptibility testing of living cells (live bacteria counting, 2 h); settings: for Living cell counts: 2 h
Protocol: as §1, §2, §3

Klebsiella pneumoniae [12] = experiment: 24 h routine (conventional) drug susceptibility testing by visual observation
Klebsiella pneumoniae [13] = experiment: 2 h susceptibility by resistance bacterial counter; settings: Example 3, resistance counting, 2 h at 37° C., 60% of the positive count value as threshold
Protocol: as §4, §5, §6

[14] = test system: Enterococcus faecalis (ATCC29212); experiment: rapid drug susceptibility testing of living cells (live bacteria counting, 2 h); settings: for Living cell counts: 2 h
Protocol: as §1, §2, §3

[15] = test system: Enterococcus faecalis (ATCC29212); experiment: 2 h susceptibility by resistance bacterial counter; settings: Example 3, resistance counting, 2 h at 37° C., 60% of the positive count value as threshold
Protocol: as §4, §5, §6

[16] = test system: Enterococcus faecalis (ATCC29212); experiment: 24 h routine (conventional) drug susceptibility testing by visual observation
[17] = Example 3, 24 h routine susceptibility
[18] = Example 4, 24 h routine susceptibility
[19] = Example 4, live bacteria counting, 2 h at 37° C.

## CC(C)(O/N=C(\C(=O)N[C@@H]1C(=O)N2C(C(=O)[O-])=C(C[n+]3ccccc3)CS[C@H]12)c1csc(N)n1)C(=O)O [Ceftazidime]
[1]; [17]
  24 hMIC: 2
[1]; [18]
  MIC, conventional drug susceptibility testing: 2 µg/mL (≈ 3.66 µM)
[2]; 0.03 μg/mL
  Living cell counts: 1509 cells/μL
[2]; 0.06 μg/mL
  Living cell counts: 1478 cells/μL
[2]; 0.12 μg/mL
  Living cell counts: 1513 cells/μL
[2]; 0.25 μg/mL
  Living cell counts: 1480 cells/μL
[2]; 0.5 μg/mL
  Living cell counts: 1235 cells/μL
[2]; 1 μg/mL
  Living cell counts: 1090 cells/μL
[2]; 2 μg/mL
  Living cell counts: 308 cells/μL
[2]; 4 μg/mL
  Living cell counts: 297 cells/μL
[2]; 8 μg/mL
  Living cell counts: 202 cells/μL
[2]; 16 μg/mL
  Living cell counts: 209 cells/μL
[2]; [19]
  MIC, rapid drug susceptibility testing of living cells: 2 µg/mL
[3]
  2 hMIC: 4

## C[C@@H](O)[C@H]1C(=O)N2C(C(=O)O)=C(S[C@@H]3CN[C@H](C(=O)N(C)C)C3)[C@H](C)[C@H]12 [Meropenem]
Acinetobacter baumannii [4]; [17]
  24 hMIC: 0.12
Acinetobacter baumannii [4]; [18]
  MIC, conventional drug susceptibility testing: 0.12 µg/mL (≈ 0.313 µM)
Acinetobacter baumannii [5]; 0.03 μg/mL
  Living cell counts: 7959 cells/μL
Acinetobacter baumannii [5]; 0.06 μg/mL
  Living cell counts: 6495 cells/μL
Acinetobacter baumannii [5]; 0.12 μg/mL
  Living cell counts: 1574 cells/μL
Acinetobacter baumannii [5]; 0.25 μg/mL
  Living cell counts: 1570 cells/μL
Acinetobacter baumannii [5]; 0.5 μg/mL
  Living cell counts: 1514 cells/μL
Acinetobacter baumannii [5]; 1 μg/mL
  Living cell counts: 1490 cells/μL
Acinetobacter baumannii [5]; 2 μg/mL
  Living cell counts: 1479 cells/μL
Acinetobacter baumannii [5]; 4 μg/mL
  Living cell counts: 1561 cells/μL
Acinetobacter baumannii [5]; 8 μg/mL
  Living cell counts: 1003 cells/μL
Acinetobacter baumannii [5]; 16 μg/mL
  Living cell counts: 979 cells/μL
Acinetobacter baumannii [5]; [19]
  MIC, rapid drug susceptibility testing of living cells: 0.12 µg/mL
Acinetobacter baumannii [6]
  2 hMIC: 0.12

## CC1(C)S[C@@H]2[C@H](NC(=O)[C@H](N)c3ccccc3)C(=O)N2[C@H]1C(=O)O [ampicillin]
[7]; 0 min, 0.5 μg/mL
  bacterial counts: 210 cells/μL
[7]; 0 min, 1 μg/mL
  bacterial counts: 230 cells/μL
[7]; 0 min, 2 μg/mL
  bacterial counts: 208 cells/μL
[7]; 0 min, 4 μg/mL
  bacterial counts: 206 cells/μL
[7]; 0 min, 8 μg/mL
  bacterial counts: 204 cells/μL
[7]; 0 min, 16 μg/mL
  bacterial counts: 208 cells/μL
[7]; 0 min, 32 μg/mL
  bacterial counts: 210 cells/μL
[7]; 0 min, 64 μg/mL
  bacterial counts: 220 cells/μL
[7]; 0 min, 128 μg/mL
  bacterial counts: 212 cells/μL
[7]; 0 min, 256 μg/mL
  bacterial counts: 207 cells/μL
[7]; 60 min, 0.5 μg/mL
  bacterial counts: 807 cells/μL
[7]; 60 min, 1 μg/mL
  bacterial counts: 789 cells/μL
[7]; 60 min, 2 μg/mL
  bacterial counts: 811 cells/μL
[7]; 60 min, 4 μg/mL
  bacterial counts: 304 cells/μL
[7]; 60 min, 8 μg/mL
  bacterial counts: 250 cells/μL
[7]; 60 min, 16 μg/mL
  bacterial counts: 264 cells/μL
[7]; 60 min, 32 μg/mL
  bacterial counts: 290 cells/μL
[7]; 60 min, 64 μg/mL
  bacterial counts: 278 cells/μL
[7]; 60 min, 128 μg/mL
  bacterial counts: 214 cells/μL
[7]; 60 min, 256 μg/mL
  bacterial counts: 350 cells/μL
[7]; 90 min, 0.5 μg/mL
  bacterial counts: 1540 cells/μL
[7]; 90 min, 1 μg/mL
  bacterial counts: 1469 cells/μL
[7]; 90 min, 2 μg/mL
  bacterial counts: 1511 cells/μL
[7]; 90 min, 4 μg/mL
  bacterial counts: 432 cells/μL
[7]; 90 min, 8 μg/mL
  bacterial counts: 502 cells/μL
[7]; 90 min, 16 μg/mL
  bacterial counts: 500 cells/μL
[7]; 90 min, 32 μg/mL
  bacterial counts: 491 cells/μL
[7]; 90 min, 64 μg/mL
  bacterial counts: 489 cells/μL
[7]; 90 min, 128 μg/mL
  bacterial counts: 367 cells/μL
[7]; 90 min, 256 μg/mL
  bacterial counts: 460 cells/μL
[7]; 120 min, 0.5 μg/mL
  bacterial counts: 2534 cells/μL
[7]; 120 min, 1 μg/mL
  bacterial counts: 2456 cells/μL
[7]; 120 min, 2 μg/mL
  bacterial counts: 2463 cells/μL
[7]; 120 min, 4 μg/mL
  bacterial counts: 590 cells/μL
[7]; 120 min, 8 μg/mL
  bacterial counts: 524 cells/μL
[7]; 120 min, 16 μg/mL
  bacterial counts: 560 cells/μL
[7]; 120 min, 32 μg/mL
  bacterial counts: 578 cells/μL
[7]; 120 min, 64 μg/mL
  bacterial counts: 641 cells/μL
[7]; 120 min, 128 μg/mL
  bacterial counts: 498 cells/μL
[7]; 120 min, 256 μg/mL
  bacterial counts: 512 cells/μL
[7]; ATCC25922, resistance method, Escherichia coli ATCC 25922, read-out: minimum inhibitory concentration (MIC)
  MIC: 4 µg/mL (≈ 11.4 µM)
[8]
  MIC: 2 µg/mL (≈ 5.72 µM)
[9]
  MIC: 4 µg/mL (≈ 11.4 µM)
[10]
  MIC: 4 µg/mL (≈ 11.4 µM)

## Gentamicin
Klebsiella pneumoniae [11]; 0.03 μg/mL
  Living cell counts: 11879 cells/μL
Klebsiella pneumoniae [11]; 0.06 μg/mL
  Living cell counts: 11426 cells/μL
Klebsiella pneumoniae [11]; 0.12 μg/mL
  Living cell counts: 10167 cells/μL
Klebsiella pneumoniae [11]; 0.25 μg/mL
  Living cell counts: 10278 cells/μL
Klebsiella pneumoniae [11]; 0.5 μg/mL
  Living cell counts: 10971 cells/μL
Klebsiella pneumoniae [11]; 1 μg/mL
  Living cell counts: 10654 cells/μL
Klebsiella pneumoniae [11]; 2 μg/mL
  Living cell counts: 10549 cells/μL
Klebsiella pneumoniae [11]; 4 μg/mL
  Living cell counts: 10876 cells/μL
Klebsiella pneumoniae [11]; 8 μg/mL
  Living cell counts: 1876 cells/μL
Klebsiella pneumoniae [11]; 16 μg/mL
  Living cell counts: 880 cells/μL
Klebsiella pneumoniae [11]; [19]
  MIC, rapid drug susceptibility testing of living cells: 8 µg/mL
Klebsiella pneumoniae [12]; [17]
  24 hMIC: 8
Klebsiella pneumoniae [12]; [18]
  MIC, conventional drug susceptibility testing: 8 µg/mL
Klebsiella pneumoniae [13]
  2 hMIC: 4

## Penicillin
[14]; 0.03 μg/mL
  Living cell counts: 13789 cells/μL
[14]; 0.06 μg/mL
  Living cell counts: 13679 cells/μL
[14]; 0.12 μg/mL
  Living cell counts: 12958 cells/μL
[14]; 0.25 μg/mL
  Living cell counts: 12088 cells/μL
[14]; 0.5 μg/mL
  Living cell counts: 11105 cells/μL
[14]; 1 μg/mL
  Living cell counts: 3085 cells/μL
[14]; 2 μg/mL
  Living cell counts: 1076 cells/μL
[14]; 4 μg/mL
  Living cell counts: 798 cells/μL
[14]; 8 μg/mL
  Living cell counts: 683 cells/μL
[14]; 16 μg/mL
  Living cell counts: 659 cells/μL
[14]; [19]
  MIC, rapid drug susceptibility testing of living cells: 1 µg/mL
[15]
  2 hMIC: 1
[16]; [17]
  24 hMIC: 2
[16]; [18]
  MIC, conventional drug susceptibility testing: 2 µg/mL
